Non-standard residues stand in square brackets, D forms with d. Residues, ends and D or L forms follow the SMILES beside them. No end group written: not given here. *: point of attachment. Succinimide(1-Et,3-yl) = CCN1C(=O)CC(*)C1=O; hArg = N=C(N)NCCCC[C@H](N)C(=O)O; dNle = CCCC[C@@H](N)C(=O)O
Molecular target: T1, hNMUR1 (Homo sapiens, UniProt Q9HB89)
T1 sequence (Q9HB89 1-426): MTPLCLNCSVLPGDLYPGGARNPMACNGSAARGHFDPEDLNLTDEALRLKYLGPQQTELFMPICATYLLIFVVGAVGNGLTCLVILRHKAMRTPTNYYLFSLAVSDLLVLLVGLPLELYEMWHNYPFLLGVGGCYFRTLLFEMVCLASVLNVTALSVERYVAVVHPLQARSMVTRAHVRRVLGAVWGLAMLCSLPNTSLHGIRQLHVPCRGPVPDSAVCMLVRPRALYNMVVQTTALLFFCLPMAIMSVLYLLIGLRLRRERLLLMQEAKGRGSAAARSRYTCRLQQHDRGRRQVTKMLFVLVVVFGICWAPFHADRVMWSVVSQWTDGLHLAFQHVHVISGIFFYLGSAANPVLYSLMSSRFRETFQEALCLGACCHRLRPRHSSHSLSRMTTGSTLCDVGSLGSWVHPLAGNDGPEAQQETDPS
Experiment: 125I-hNMU-25 binding assay, human NMUR1 membranes
Set-up: expressed in transfected cells; host or cells: HEK-293 FLP-In cells (pcDNA5); HEK-293/aeq17 lines (pIRES-puro) were also made; % inhibition of NMU-25 binding / % Activity: concentration or dose not given beside the values
Description: Confluent cell monolayers expressing NMU receptors (the HEK cells described above) were harvested with phosphate buffered saline, collected by centrifugation, and resuspended in membrane buffer (50 mM TrisCl pH 7.4, 5 mM MgCl2, 1× Protease Inhibitor Cocktail, 10 μM phosphoramidon). After the cell pellet was homogenized, the solution was centrifuged at 18,000 rpm for 20 minutes at 4° C. The pellet was resuspended in membrane buffer to yield a final concentration of 0.5-5 μg/μL of membrane and stored at −80° C.
Experiments were performed in assay buffer (25 mM TrisCl, pH 7.4, 10 mM MgCl2, 2 mM EDTA, 1× Protease Inhibitor Cocktail, 100 μg/mL Bacitricin, 10 μM phosphoramidon) in 200 μL volumes in a 96-well format using 2-5 μg of membrane and 0.1 nM ^125I-hNMU-25 (about 12,000 cpm/well). For non-specific binding, 1 μM hNMU-25 was added. About 5 μL of peptides were added to measure antagonist activity, and the entire reaction was incubated at room temperature with shaking for 80 minutes. The reaction was terminated by rapid filtration through 0.3% poly-ethylenimine presoaked Millipore 96-well filter plates and washed with ice-cold buffer (5 mM TrisCl pH 7.4, 10 mM MgCl2, 2.5 mM EDTA, 0.04% Triton X-100). Plates were air-dried overnight at room temperature and recovered radioactivity was determined by standard scintillation counting. IC50 values were determined using GraphPad Prism software.
Concentration-response curves and radioligand-binding data were fitted using Prism (GraphPad Software). Results are summarized below in Tables 8 and 9.

[1] = Table 8, HEK-hR1, second (binding) column pair

| Molecule | % Activity (Table 9, HEK-hR1, binding) | % Activity (Table 8, HEK-hR1, binding) | IC50 (Table 9, HEK-hR1, binding) | also measured |
| --- | --- | --- | --- | --- |
| H-FRVDEEFQSPFASQSRGYFLFRPRN-NH2 [hNMU-25, reference compound] | 100% | – | – | IC50 (binding, human R1): 0.14 nM |
| H-FRVDEEFQSPFASQSRGYFWRPRN-NH2 [Agonist G] | – | 97% | – | – |
| CCCC[C@@H](NC(=O)[C@H](CCCNC(=N)N)NC(=O)[C@H](C)NC(=O)[C@H](CCCNC(=N)N)NC(=O)[C@H](Cc1ccccc1)NC(=O)[C@H](CC(C)C)NC(=O)[C@H](Cc1ccccc1)NC(=O)[C@@H](N)Cc1c[nH]c2ccccc12)C(N)=O [Agonist K, WFLFRAR-(D-Nle)-CONH2] (H-WFLFRAR[dNle]-NH2) | 25% | – | > 1000 nM | – |
| CC(=O)N[C@@H](Cc1ccccc1)C(=O)N[C@H](CC(C)C)C(=O)N[C@@H](Cc1c[nH]c2ccccc12)C(=O)N[C@@H](CCCNC(=N)N)C(=O)N1CCC[C@H]1C(=O)N[C@@H](CCCNC(=N)N)C(=O)N[C@@H](CC(N)=O)C(N)=O [Agonist E, Ac-F-(D-L)-WRPRN-CONH2] (Ac-F[dL]WRPRN-NH2) | – | 93% | – | – |
| CC(C)C[C@H](NC(=O)[C@H](Cc1c[nH]c2ccccc12)NC(=O)[C@H](Cc1ccccc1)NC(=O)CNC(=O)[C@H](CCCNC(=N)N)NC(=O)[C@H](CO)NC(=O)[C@H](CCC(N)=O)NC(=O)[C@H](CO)NC(=O)[C@H](C)NC(=O)[C@H](Cc1ccccc1)NC(=O)[C@@H]1CCCN1C(=O)[C@H](CO)NC(=O)[C@H](CCC(N)=O)NC(=O)[C@H](Cc1ccccc1)NC(=O)[C@H](CCC(=O)O)NC(=O)[C@H](CCC(=O)O)NC(=O)[C@H](CC(=O)O)NC(=O)[C@@H](NC(=O)[C@H](CCCNC(=N)N)NC(=O)[C@@H](N)Cc1ccccc1)C(C)C)C(=O)N[C@@H](Cc1ccccc1)C(=O)N[C@@H](CCCNC(=N)N)C(=O)N[C@@H](C)C(=O)N[C@@H](CCCCNC(=N)N)C(=O)N[C@@H](CC(N)=O)C(N)=O [Agonist P] (H-FRVDEEFQSPFASQSRGFWLFRA[hArg]N-NH2; N-terminus assumed) | 1% | – | > 1000 nM | – |
| CC(C)C[C@@H](NC(=O)[C@H](Cc1ccccc1)NC(=O)[C@H](Cc1ccc(O)cc1)NC(=O)CNC(=O)[C@H](CCCNC(=N)N)NC(=O)[C@H](CO)NC(=O)[C@H](CCC(N)=O)NC(=O)[C@H](CO)NC(=O)[C@H](C)NC(=O)[C@H](Cc1ccccc1)NC(=O)[C@@H]1CCCN1C(=O)[C@H](CO)NC(=O)[C@H](CCC(N)=O)NC(=O)[C@H](Cc1ccccc1)NC(=O)[C@H](CCC(=O)O)NC(=O)[C@H](CCC(=O)O)NC(=O)[C@H](CC(=O)O)NC(=O)[C@@H](NC(=O)[C@H](CCCNC(=N)N)NC(=O)[C@@H](N)Cc1ccccc1)C(C)C)C(=O)N[C@@H](Cc1c[nH]c2ccccc12)C(=O)N[C@@H](CCCNC(=N)N)C(=O)N1CCC[C@H]1C(=O)N[C@@H](CCCNC(=N)N)C(=O)N[C@@H](CC(N)=O)C(N)=O [Agonist H] (H-FRVDEEFQSPFASQSRGYF[dL]WRPRN-NH2; N-terminus assumed) | – | 93% | – | IC50 (binding, human R1): 1.1 nM; % inhibition of NMU-25 binding (human R1): 93% |
| CCN1C(=O)CC(SC[C@H](NC(C)=O)C(=O)N[C@@H](Cc2ccccc2)C(=O)N[C@@H](CCCNC(=N)N)C(=O)N[C@H](C(=O)N[C@@H](CC(=O)O)C(=O)N[C@@H](CCC(=O)O)C(=O)N[C@@H](CCC(=O)O)C(=O)N[C@@H](Cc2ccccc2)C(=O)N[C@@H](CCC(N)=O)C(=O)N[C@@H](CO)C(=O)N2CCC[C@H]2C(=O)N[C@@H](Cc2ccccc2)C(=O)N[C@@H](C)C(=O)N[C@@H](CO)C(=O)N[C@@H](CCC(N)=O)C(=O)N[C@@H](CO)C(=O)N[C@@H](CCCNC(=N)N)C(=O)NCC(=O)N[C@@H](Cc2ccc(O)cc2)C(=O)N[C@@H](Cc2ccccc2)C(=O)N[C@H](C)C(=O)N[C@@H](Cc2c[nH]c3ccccc23)C(=O)N[C@@H](CCCNC(=N)N)C(=O)N2CCC[C@H]2C(=O)N[C@@H](CCCNC(=N)N)C(=O)N[C@@H](CC(N)=O)C(N)=O)C(C)C)C1=O (stereo partly shown) [NMU13] (Ac-C(Succinimide(1-Et,3-yl))FRVDEEFQSPFASQSRGYF[dA]WRPRN-NH2) | – | – | – | % inhibition of NMU-25 binding (human R1): 100% |
| CC(C)C[C@H](NC(=O)[C@H](Cc1c[nH]c2ccccc12)NC(=O)[C@H](Cc1ccccc1)NC(=O)CNC(=O)[C@H](CCCNC(=N)N)NC(=O)[C@H](CO)NC(=O)[C@H](CCC(N)=O)NC(=O)[C@H](CO)NC(=O)[C@H](C)NC(=O)[C@H](Cc1ccccc1)NC(=O)[C@@H]1CCCN1C(=O)[C@H](CO)NC(=O)[C@H](CCC(N)=O)NC(=O)[C@H](Cc1ccccc1)NC(=O)[C@H](CCC(=O)O)NC(=O)[C@H](CCC(=O)O)NC(=O)[C@H](CC(=O)O)NC(=O)[C@@H](NC(=O)[C@H](CCCNC(=N)N)NC(=O)[C@@H](N)Cc1ccccc1)C(C)C)C(=O)N[C@@H](Cc1ccccc1)C(=O)N[C@@H](CCCNC(=N)N)C(=O)N1CCC[C@H]1C(=O)N[C@@H](CCCCNC(=N)N)C(=O)N[C@@H](CC(N)=O)C(N)=O [Agonist O] (H-FRVDEEFQSPFASQSRGFWLFRP[hArg]N-NH2; N-terminus assumed) | 64% | – | 400 nM | – |
| C[C@@H](NC(=O)[C@H](Cc1ccccc1)NC(=O)[C@@H](N)Cc1ccc(O)cc1)C(=O)N[C@@H](Cc1c[nH]c2ccccc12)C(=O)N[C@@H](CCCNC(=N)N)C(=O)N1CCC[C@H]1C(=O)N[C@@H](CCCNC(=N)N)C(=O)N[C@@H](CC(N)=O)C(N)=O [Agonist D, YF-(D-A)-WRPRN-CONH2] (H-YF[dA]WRPRN-NH2; N-terminus assumed) | – | 100% | – | – |
| H-FWLFRARN-NH2 [Agonist L] | 0% | – | > 1000 nM | – |
| CCCC[C@@H](NC(=O)[C@H](CCCNC(=N)N)NC(=O)[C@@H]1CCCN1C(=O)[C@H](CCCNC(=N)N)NC(=O)[C@H](Cc1ccccc1)NC(=O)[C@H](CC(C)C)NC(=O)[C@H](Cc1c[nH]c2ccccc12)NC(=O)[C@H](Cc1ccccc1)NC(=O)CNC(=O)[C@H](CCCNC(=N)N)NC(=O)[C@H](CO)NC(=O)[C@H](CCC(N)=O)NC(=O)[C@H](CO)NC(=O)[C@H](C)NC(=O)[C@H](Cc1ccccc1)NC(=O)[C@@H]1CCCN1C(=O)[C@H](CO)NC(=O)[C@H](CCC(N)=O)NC(=O)[C@H](Cc1ccccc1)NC(=O)[C@H](CCC(=O)O)NC(=O)[C@H](CCC(=O)O)NC(=O)[C@H](CC(=O)O)NC(=O)[C@@H](NC(=O)[C@H](CCCNC(=N)N)NC(=O)[C@@H](N)Cc1ccccc1)C(C)C)C(N)=O [Agonist Q] (H-FRVDEEFQSPFASQSRGFWLFRPR[dNle]-NH2) | 16% | – | > 1000 nM | – |
| H-YFGWRPRN-NH2 [Agonist C] | – | 100% | – | – |
| CC(C)C[C@@H](NC(=O)[C@H](Cc1ccccc1)NC(=O)[C@@H](N)Cc1ccc(O)cc1)C(=O)N[C@@H](Cc1c[nH]c2ccccc12)C(=O)N[C@@H](CCCNC(=N)N)C(=O)N1CCC[C@H]1C(=O)N[C@@H](CCCNC(=N)N)C(=O)N[C@@H](CC(N)=O)C(N)=O [Agonist B, YF-(D-L)-WRPRN-CONH2] (H-YF[dL]WRPRN-NH2) | – | 96% | – | – |
| Ac-FFRPRN-NH2 [Agonist F, Ac-FFRPRN-CONH2] | – | 30% | – | IC50 [1]: > 1000 nM |
| WALFRARN-NH2 [Agonist M] | 0% | – | > 1000 nM | – |
| CC(C)C[C@H](NC(=O)[C@H](Cc1ccccc1)NC(=O)[C@@H](N)Cc1ccc(O)cc1)C(=O)N[C@@H](Cc1ccccc1)C(=O)N[C@@H](CCCNC(=N)N)C(=O)N1CCC[C@H]1C(=O)N[C@@H](CCCNC(=N)N)C(=O)N[C@@H](CC(N)=O)C(N)=O [NMU-8, reference compound] | 100% | – | – | – |
| CC(C)C[C@H](NC(=O)[C@H](Cc1c[nH]c2ccccc12)NC(=O)[C@@H](N)Cc1ccccc1)C(=O)N[C@@H](Cc1ccccc1)C(=O)N[C@@H](CCCNC(=N)N)C(=O)N[C@@H](C)C(=O)N[C@@H](CCCCNC(=N)N)C(=O)N[C@@H](CC(N)=O)C(N)=O [Agonist J, FWLFRA-(Harg)-N-CONH2] (H-FWLFRA[hArg]N-NH2) | 34% | – | > 1000 nM | – |
| CC(C)C[C@H](NC(=O)[C@H](Cc1c[nH]c2ccccc12)NC(=O)[C@@H](N)Cc1ccccc1)C(=O)N[C@@H](Cc1ccccc1)C(=O)N[C@@H](CCCNC(=N)N)C(=O)N1CCC[C@H]1C(=O)N[C@@H](CCCCNC(=N)N)C(=O)N[C@@H](CC(N)=O)C(N)=O [Agonist I, FWLFRP-(Harg)-N-CONH2] (H-FWLFRP[hArg]N-NH2) | 23% | – | > 1000 nM | – |
| YFWRPRN-NH2 [Agonist A, YFWRPRN-CONH2] | – | 94% | – | IC50 [1]: 10 nM |
| FALFRPRN-NH2 [Agonist N] | 38.4% | – | > 1000 nM | – |

Source: patent publication US20100075907A1, “NEUROMEDIN U RECEPTOR AGONISTS AND USES THEREOF” (priority 2006, published 2010)
